# Assay results published in patent US20230399312A1, “SUBSTITUTED PYRIMIDINES AND METHODS OF USE” (THERAVANCE BIOPHARMA R&D IP, LLC, priority 2020, published 2023).
# pKi: −log10 of the molar value.
# Experiments:
# [1] = system: TGF-β-stimulated SMAD3 phosphorylation in BEAS-2B cells; assay: Cellular ALK5 potency assay, inhibition of TGF-β stimulated pSMAD3 formation in BEAS-2B cells; type: cell-based; conditions: Homo sapiens, pSMAD3, TGF-β 10 ng/mL, read-out: BEAS2B pIC50 (converted)
# In short: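 Read-out is AlphaLISA detection of phospho-SMAD3 in lysates of BEAS-2B human lung epithelial cells. Cells are exposed to compound for 1 hour, then to 10 ng/mL TGF-β (final) for 30 minutes. Values are pIC50 from concentration–response curves.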
# [2] = target: T1, recombinant human ALK5 (TGF-βR1) protein (Homo sapiens, UniProt P36897); assay: Biochemical ALK5 (TGF-βR1) assay to measure pKi (LANCE Ultra ULight kinase assay); conditions: apparent pKi, converted from pIC50 by Cheng-Prusoff
# T1 construct: purchased Life Technologies PR9075A
# T1 sequence (P36897 34-503): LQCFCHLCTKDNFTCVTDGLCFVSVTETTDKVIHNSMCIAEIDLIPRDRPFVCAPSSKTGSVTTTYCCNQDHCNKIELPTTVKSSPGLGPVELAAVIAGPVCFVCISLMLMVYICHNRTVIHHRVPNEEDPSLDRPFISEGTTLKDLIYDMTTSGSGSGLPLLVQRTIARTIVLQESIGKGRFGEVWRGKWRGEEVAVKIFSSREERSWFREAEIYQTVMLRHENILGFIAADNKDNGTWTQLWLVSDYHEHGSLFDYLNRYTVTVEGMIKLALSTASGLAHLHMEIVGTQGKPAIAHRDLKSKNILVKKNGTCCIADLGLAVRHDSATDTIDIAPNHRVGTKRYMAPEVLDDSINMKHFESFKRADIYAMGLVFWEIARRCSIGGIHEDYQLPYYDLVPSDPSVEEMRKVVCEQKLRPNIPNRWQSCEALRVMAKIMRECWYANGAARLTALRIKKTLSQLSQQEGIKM
# In short: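 Enzyme was preincubated with compound for 60 min at room temperature, then ATP (added from a 125 μM 5× stock with 2 mM DTT) started a 60 min reaction at 37 °C. EDTA plus Eu-anti-phospho-Topo2α (Thr1342) antibody stopped it; TR-FRET pIC50 values were converted to pKi by Cheng-Prusoff.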
Structure (SMILES),IC50 [1],pKi [2]
"Cc1cccc(-c2nccc(Nc3ccnc(Nc4ccnc(C(=O)OCC5CNC5)c4)n3)n2)n1 [Compound 616, azetidin-3-ylmethyl 4-[[4-[[2-(6-methyl-2-pyridyl)pyrimidin-4-yl]amino]pyrimidin-2-yl]amino]pyridine-2-carboxylate]",25.1 to 158 nM,8.50 to 9.40
"Cc1cccc(-c2nccc(Nc3ccnc(Nc4ccc(C(=O)O[C@H]5CCCNC5)nc4)n3)n2)n1 [Compound 617, [(3S)-3-piperidyl] 5-[[4-[[2-(6-methyl-2-pyridyl)pyrimidin-4-yl]amino]pyrimidin-2-yl]amino]pyridine-2-carboxylate]",25.1 to 158 nM,9.50 to 10.40
"Cc1cccc(-c2nccc(Nc3ccnc(Nc4cncc(C(=O)OC[C@H]5CCCN5)c4)n3)n2)n1 [Compound 618, [(2R)-pyrrolidin-2-yl]methyl 5-[[4-[[2-(6-methyl-2-pyridyl)pyrimidin-4-yl]amino]pyrimidin-2-yl]amino]pyridine-3-carboxylate]",25.1 to 158 nM,8.50 to 9.40
"Cc1cccc(-c2nccc(Nc3ccnc(Nc4csc(C(=O)OCCN5CCC[C@H](N)C5)c4)n3)n2)n1 [Compound 619, 2-[(3S)-3-amino-1-piperidyl]ethyl 4-[[4-[[2-(6-methyl-2-pyridyl)pyrimidin-4-yl]amino]pyrimidin-2-yl]amino]thiophene-2-carboxylate]",25.1 to 158 nM,9.50 to 10.40
"Cc1cccc(-c2nccc(Nc3ccnc(Nc4ccc(C(=O)OC[C@H]5CCCNC5)nc4)n3)n2)n1 [Compound 620, [(3S)-3-piperidyl]methyl 5-[[4-[[2-(6-methyl-2-pyridyl)pyrimidin-4-yl]amino]pyrimidin-2-yl]amino]pyridine-2-carboxylate]",25.1 to 158 nM,9.50 to 10.40
"Cc1cccc(-c2nccc(Nc3ccnc(Nc4csc(C(=O)OC[C@@H]5CCC[C@H](N)C5)c4)n3)n2)n1 [Compound 621, [(1R,3S)-3-aminocyclohexyl]methyl 4-[[4-[[2-(6-methyl-2-pyridyl)pyrimidin-4-yl]amino]pyrimidin-2-yl]amino]thiophene-2-carboxylate]",25.1 to 158 nM,9.50 to 10.40
"Cc1cccc(-c2nccc(Nc3ccnc(Nc4ccc(C(=O)OC5CNC5)cn4)n3)n2)n1 [Compound 622, azetidin-3-yl 6-[[4-[[2-(6-methyl-2-pyridyl)pyrimidin-4-yl]amino]pyrimidin-2-yl]amino]pyridine-3-carboxylate]",25.1 to 158 nM,7.50 to 8.40
"Cc1cccc(-c2nccc(Nc3ccnc(Nc4ncc(C5=CCNCC5)s4)n3)n2)n1 [Compound 623, N4-[2-(6-methyl-2-pyridyl)pyrimidin-4-yl]-N2-[5-(1,2,3,6-tetrahydropyridin-4-yl)thiazol-2-yl]pyrimidine-2,4-diamine]",25.1 to 158 nM,8.50 to 9.40
"Cc1cccc(-c2nccc(Nc3ccnc(Nc4cc(C(=O)OCCN5CCNCC5)ccn4)n3)n2)n1 [Compound 624, 2-piperazin-1-ylethyl 2-[[4-[[2-(6-methyl-2-pyridyl)pyrimidin-4-yl]amino]pyrimidin-2-yl]amino]pyridine-4-carboxylate]",200 to 1260 nM,7.50 to 8.40
"Cc1cccc(-c2nccc(Nc3ccnc(Nc4ccc(C(=O)OC[C@@H]5CCCNC5)nc4)n3)n2)n1 [Compound 625, [(3R)-3-piperidyl]methyl 5-[[4-[[2-(6-methyl-2-pyridyl)pyrimidin-4-yl]amino]pyrimidin-2-yl]amino]pyridine-2-carboxylate]",25.1 to 158 nM,9.50 to 10.40
"Cc1cccc(-c2nccc(Nc3ccnc(Nc4nc(C5=CCNC5)cs4)n3)n2)n1 [Compound 626, N2-[4-(2,5-dihydro-1H-pyrrol-3-yl)thiazol-2-yl]-N4-[2-(6-methyl-2-pyridyl)pyrimidin-4-yl]pyrimidine-2,4-diamine]",25.1 to 158 nM,9.50 to 10.40
"Cc1cccc(-c2nccc(Nc3ccnc(Nc4csc(C(=O)OCCN5C[C@@H](C)N[C@@H](C)C5)c4)n3)n2)n1 [Compound 627, 2-[(3S,5R)-3,5-dimethylpiperazin-1-yl]ethyl 4-[[4-[[2-(6-methyl-2-pyridyl)pyrimidin-4-yl]amino]pyrimidin-2-yl]amino]thiophene-2-carboxylate]",25.1 to 158 nM,9.50 to 10.40
"Cc1cccc(-c2nccc(Nc3ccnc(Nc4ccc(C(=O)OC[C@H]5CCCCN5)nc4)n3)n2)n1 [Compound 628, [(2R)-2-piperidyl]methyl 5-[[4-[[2-(6-methyl-2-pyridyl)pyrimidin-4-yl]amino]pyrimidin-2-yl]amino]pyridine-2-carboxylate]",25.1 to 158 nM,9.50 to 10.40
"Cc1cccc(-c2nccc(Nc3ccnc(Nc4nc(CN5CC(C(=O)O)C5)cs4)n3)n2)n1 [Compound 629, 1-[[2-[[4-[[2-(6-methyl-2-pyridyl)pyrimidin-4-yl]amino]pyrimidin-2-yl]amino]thiazol-4-yl]methyl]azetidine-3-carboxylic acid]",1580 to 10000 nM,9.50 to 10.40
"Cc1cccc(-c2nccc(Nc3ccnc(Nc4ncc(C(=O)OC[C@@H]5CCNC5)s4)n3)n2)n1 [Compound 630, [(3R)-pyrrolidin-3-yl]methyl 2-[[4-[[2-(6-methyl-2-pyridyl)pyrimidin-4-yl]amino]pyrimidin-2-yl]amino]thiazole-5-carboxylate]",200 to 1260 nM,7.50 to 8.40
"Cc1cccc(-c2nccc(Nc3ccnc(Nc4csc(C(=O)O[C@H]5C[C@@H](N)C5)c4)n3)n2)n1 [Compound 631, (3-aminocyclobutyl) 4-[[4-[[2-(6-methyl-2-pyridyl)pyrimidin-4-yl]amino]pyrimidin-2-yl]amino]thiophene-2-carboxylate]",25.1 to 158 nM,9.50 to 10.40
"Cc1cccc(-c2nccc(Nc3ccnc(Nc4cc(C(=O)O[C@H]5CCNC5)ccn4)n3)n2)n1 [Compound 632, [(3S)-pyrrolidin-3-yl] 2-[[4-[[2-(6-methyl-2-pyridyl)pyrimidin-4-yl]amino]pyrimidin-2-yl]amino]pyridine-4-carboxylate]",25.1 to 158 nM,7.50 to 8.40
"Cc1cccc(-c2nccc(Nc3ccnc(Nc4cc(C(=O)OC5CCNCC5)ccn4)n3)n2)n1 [Compound 633, 4-piperidyl 2-[[4-[[2-(6-methyl-2-pyridyl)pyrimidin-4-yl]amino]pyrimidin-2-yl]amino]pyridine-4-carboxylate]",200 to 1260 nM,7.50 to 8.40
"Cc1cccc(-c2nccc(Nc3ccnc(Nc4ccc(C(=O)OC5CCNCC5)cn4)n3)n2)n1 [Compound 634, 4-piperidyl 6-[[4-[[2-(6-methyl-2-pyridyl)pyrimidin-4-yl]amino]pyrimidin-2-yl]amino]pyridine-3-carboxylate]",25.1 to 158 nM,7.50 to 8.40
"Cc1cccc(-c2nccc(Nc3ccnc(Nc4csc(C(=O)OC[C@@H]5CCC[C@@H](N)C5)c4)n3)n2)n1 [Compound 635, [(1R,3R)-3-aminocyclohexyl]methyl 4-[[4-[[2-(6-methyl-2-pyridyl)pyrimidin-4-yl]amino]pyrimidin-2-yl]amino]thiophene-2-carboxylate]",25.1 to 158 nM,9.50 to 10.40
"Cc1cccc(-c2nccc(Nc3ccnc(Nc4cc(C(=O)O)ccn4)n3)n2)n1 [Compound 636, 2-[[4-[[2-(6-methyl-2-pyridyl)pyrimidin-4-yl]amino]pyrimidin-2-yl]amino]pyridine-4-carboxylic acid]",1580 to 10000 nM,7.50 to 8.40
"Cc1cccc(-c2nccc(Nc3ccnc(Nc4csc(C(=O)OC[C@@H]5CCCN5)c4)n3)n2)n1 [Compound 637, [(2S)-pyrrolidin-2-yl]methyl 4-[[4-[[2-(6-methyl-2-pyridyl)pyrimidin-4-yl]amino]pyrimidin-2-yl]amino]thiophene-2-carboxylate]",25.1 to 158 nM,9.50 to 10.40
"Cc1cccc(-c2nccc(Nc3ccnc(Nc4csc(C(=O)O[C@H]5C[C@H](N)C5)c4)n3)n2)n1 [Compound 638, (3-aminocyclobutyl) 4-[[4-[[2-(6-methyl-2-pyridyl)pyrimidin-4-yl]amino]pyrimidin-2-yl]amino]thiophene-2-carboxylate]",25.1 to 158 nM,9.50 to 10.40
"Cc1cccc(-c2nccc(Nc3ccnc(Nc4csc(C(=O)OC[C@@H]5CCCCN5)c4)n3)n2)n1 [Compound 639, [(2S)-2-piperidyl]methyl 4-[[4-[[2-(6-methyl-2-pyridyl)pyrimidin-4-yl]amino]pyrimidin-2-yl]amino]thiophene-2-carboxylate]",25.1 to 158 nM,9.50 to 10.40
"Cc1cccc(-c2nccc(Nc3ccnc(Nc4cncc(C(=O)OC[C@H]5CCCCN5)c4)n3)n2)n1 [Compound 641, [(2R)-2-piperidyl]methyl 5-[[4-[[2-(6-methyl-2-pyridyl)pyrimidin-4-yl]amino]pyrimidin-2-yl]amino]pyridine-3-carboxylate]",25.1 to 158 nM,8.50 to 9.40
